# Patent publication US6797726B1, “N-alkoxyalkyl-N,N-dialkylamine derivatives or salts thereof, and remedies for nerve degeneration diseases containing the same” (Toyama Chemical Co., Ltd., priority 1999, dated 2004)
# Assays:
# ddY male mice = experiment: Anti-hypoxic activity; format: in vivo; conditions: 100 mg/kg orally, 30 minutes after administration, gas 4% oxygen / 96% nitrogen at 5 L/minute
# Experimental: A test compound (100 mg/kg) dissolved in distilled water is orally administered to ddY male mice of 5-6 weeks age (6-10 heads per group). Thirty minutes after the administration, each mouse was introduced into a glass vessel, and a gas mixture consisting of 4% of oxygen and 96% of nitrogen was passed through the glass vessel at a rate of 5 L/minute. The period of the time from the beginning of sending the gas to the death of the animal was measured.
# To the control group, only distilled water was orally given. Anti-hypoxic activity of test compound was calculated according to the following equation:
# (Survival time of mouse in administered group)÷(Survival time of mouse in control group)×100(%)
# sciatic nerve = experiment: Nerve-regeneration promoting activity (crushed sciatic nerve); format: in vivo; conditions: 10 mg/kg intra-abdominally, 1 hour after crushing then twice per day for 5 days, SD rats, measured six days after operation
# Experimental: The test was carried out according to the description of Experimental Neurology, Vol. 140, Page 198 (1996). SD rats (male, 6 weeks age, body weight 160-200 g) were anesthetized with Pentobarbital. The left sciatic nerve was exposed from the upper femoral muscular texture and peeled off from the surrounding texture, while taking care so as to give no injury to the muscular fiber. […] The crushed zone was marked with a thread at the end of neurilemma, and the operated portion was sutured. One hour after the crushing, a test compound dissolved in physiological salt solution was administered intra-abdominally at a dosage of 10 mg/kg. Thereafter, the same administration as above was repeated twice per day far 5 days. Six days after the operation, the operated portion was again opened under an anesthesia using Pentobarbital to expose the sciatic nerve, and a forceps was made to contact to the nerve from a position about 25 mm distant from the crushed part. The forceps was slowly moved toward the crushed part until a reflex reaction appeared. […] To the control group, only a saline was given. The sciatic nerve regeneration rate of the test compound was calculated according to the following equation: (Regeneration distance in administration group)÷(Regeneration distance in control group)×100(%)
# [1] = test system: cultured nerve cell death induced by Aβ; experiment: Activity of inhibiting the Aβ-induced nerve cell death (MTT assay); format: cell-based, Wistar rat; conditions: 0.1 μM; Aβ (25-35) 20 μmol/L; cultured rat embryo cerebral cortex nerve cells
# Source text: The effect of inhibiting the death of cultured nerve cell induced by Aβ was examined by a modification of the method described in Brain Research, Vol. 639, Page 240 (1994).
# (§1) Cerebral cortex excised from the brain of an embryo of Wistar rat (embryonal age 17-19 days) was cut into small pieces and then treated with trypsin to dissociate the nerve cells. The cells were spread onto a 48-well tissue-culture plate at a rate of 1×10^5 cells per well, and cultured under a condition of 5% carbon dioxide, 37° C., in a Dulbecco modified Eagle medium to which B27 additives (product of GIBCO BRL) and 3.6 mg/mL glucose were added.
# When the cultured had been continued for 12-13 days, a solution of potassium chloride was added so as to give a final concentration of 25 mmol/L, immediately after which a test agent was added. Twenty four hours after addition of the test agent, Aβ (25-35 peptide residues) dissolved in distilled water was added so as to give a final concentration of 20 μmol/L. Twenty four hours after addition of Aβ, the medium was changed to a medium prepared by adding test compound to Dulbecco modified Eagle medium to which B27 and 3.6 mg/mL glucose were added.
# The inhibitory activity of test agent on the cultured nerve cell death was expressed by using the activity of inhibiting the decrease of MTT reducing ability as an index. That is, 48 hours after changing the medium, MTT assay developed by Mossmann [Journal of Immunological Methods, Vol. 65, Page 55 (1983)] was carried out, and the inhibition rate (%) of the agent on the decrease of MTT assay value induced by Aβ was calculated.
# Inhibition rate=[(Aβ+MTT assay value of agent−added group)−(MTT assay value of Aβ−added group)]÷[MTT assay value of no addition group−MTT assay value of Aβ−added group]×100
# [2] = test system: cultured nerve cells death induced by HNE; experiment: Activity of inhibiting the HNE-induced nerve cell death (MTT assay); format: cell-based, Wistar rat; conditions: 0.1 μM; HNE 25 μmol/L; cultured rat embryo cerebral cortex nerve cells; 24 hours
# Source text: The protecting effect against the death of cultured nerve cells induced by HNE was examined by a modification of the method described in the Journal of Neuroscience, Vol. 17, Page 5089 (1997).
# as §1, with “5×10^5” for “1×10^5”, “10% fetal calf serum” for “B27 additives (product of GIBCO BRL)”
# In order to inhibit the proliferation of glia cells, cytosine arabinoside was added so as to give a final concentration of 10 μmol/L, from the day one after starting the culture. When the culture had been continued for 2 days, the medium was changed to a Dulbecco modified Eagle medium to which 10% fetal calf serum and 3.6 mg/mL glucose were added. When the culture had been continued for 7-8 days, a test agent was added, after which HNE was immediately added so as to give a final concentration of 25 μmol/L.
# The inhibitory activity of an agent on the cultured nerve cell death was […] by using the inhibitory activity on the depression of MTT reducing ability as an index. That is, 24 hours after addition of a test agent, MTT assay [Journal of Immunological Methods, Vol. 65, Page 55 (1983)] developed by Mossmann was carried out, based on which inhibitory rate (%) of the agent on the decrease of MTT assay induced by HNE was calculated.
# Inhibitory rate=[MTT assay value of (HNE+agent)−added group)−(MTT assay value of HNE−added group)]÷(MTT assay value of no addition group−MTT assay value of HNE−added group)]×100
# [3] = test system: nerve cell death caused by Aβ; conditions: Society for Neuroscience, Abstracts, Vol. 24, No. 1, Page 228 (1998); cited from earlier work
# NGF = conditions: WO96/12717; cited from earlier work
compound,measurement,setting,value
CN(C)CCOCCc1ccc2sccc2c1.Cl [Example 16],Anti-hypoxic activity: (survival time of mouse in administered group)÷(survival time of mouse in control group)×100,ddY male mice,158%
same,Regeneration rate of sciatic nerve: (regeneration distance in administration group)÷(regeneration distance in control group)×100,sciatic nerve,115%
"CCN(CC)CCOCCc1ccc2sc(-c3ccccc3)cc2c1.Cl [Example 27, N,N-Diethyl-N-{2-[2-(2-phenylbenzo[b]-thiophen-5-yl)ethoxy]ethyl}-amine hydrochloride]",Regeneration rate of sciatic nerve: (regeneration distance in administration group)÷(regeneration distance in control group)×100,sciatic nerve,126%
same,melting point,,131 to 138 °C
2-[[2-(3-Benzo[b]thiophen-5-ylpropyl)-ethyl](methyl)amino]-1-ethanol oxalate [Example 119],Inhibition rate on the decrease of MTT assay value induced by Aβ,[1],39%
"CN(CCO)CCOCCc1ccc2sccc2c1.O=C(O)C(=O)O [Example 68, 2-{[2-(2-Benzo[b]thiophen-5-ylethoxy)ethyl]-(methyl)amino}-1-ethanol oxalate]",response vs control in vivo at 100 mg/kg,"ddY male mice; Mus musculus, po, 0.5 h, read-out: Anti-hypoxic activity: (survival time of mouse in administered group)÷(survival time of mouse in control group)×100",202%
same,Inhibition rate on the decrease of MTT assay value induced by Aβ,[1],28%
same,Inhibitory rate on the decrease of MTT assay induced by HNE,[2],57%
CCN(CC)CCOCCc1ccc2sccc2c1.O=C(O)C(=O)O [Example 10],Anti-hypoxic activity: (survival time of mouse in administered group)÷(survival time of mouse in control group)×100,ddY male mice,170%
same,Regeneration rate of sciatic nerve: (regeneration distance in administration group)÷(regeneration distance in control group)×100,sciatic nerve,117%
same,Inhibitory rate on the decrease of MTT assay induced by HNE,[2],58%
"CN(CCO)CCOCCc1c(F)cc2ccsc2c1F.Cl [Example 137, 2-[{2-[2-(5,7-Difluorobenzo[b]thiophen-6-yl)ethoxy]ethyl}(methyl)amino]-1-ethanol hydrochloride]",Inhibition rate on the decrease of MTT assay value induced by Aβ,[1],37%
same,melting point,,95.5 to 97.5 °C
"CCN(CC)CCOC[C@H](O)c1ccc2sccc2c1.Cl [Example T-588, (R)-1-(benzo[b]thiophen-5-yl)-2-[2-(N,N-diethylamino)ethoxy]ethanol hydrochloride]",Protective action on the nerve cell death caused by Aβ,[3],protective action
same,Activity of reinforcing the function of NGF,NGF,activity of reinforcing the function of NGF
